Several values for one entry are separate records, joined by “and”; a condition that tells them apart may be missing. Equal entries are not always repeated. Where two headings read alike, the source gives them in different places.
Key:
V. campbellii LuxR [1] = target: T1, V. campbellii LuxR (Vibrio harveyi, UniProt P21308); experiment: E. coli dual-color bioassay (pKM699 LuxR, pJV064 reporter); assay type: cell-based; settings: for Inhibition of LuxR in the E. coli bioassay (in words): GFP and mCherry reporters
T1 construct: expressed in transfected cells; host or cells: E. coli DH10B with pKM699 and reporter pJV064
T1 sequence (P21308 whole entry): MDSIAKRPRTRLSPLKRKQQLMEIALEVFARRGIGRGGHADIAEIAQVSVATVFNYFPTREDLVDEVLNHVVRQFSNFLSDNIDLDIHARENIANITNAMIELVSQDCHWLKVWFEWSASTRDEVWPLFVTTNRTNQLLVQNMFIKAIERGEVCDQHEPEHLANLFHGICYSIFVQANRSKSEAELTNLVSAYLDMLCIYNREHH
Source text: Previously, we developed a bioassay that consists of a dual-color fluorescent reporter plasmid that reports both LuxR activities: the luxCDABE promoter is activated by LuxR and drives expression of gfp, and the VIBHAR_05222 promoter is repressed by LuxR and drives expression of mCherry (van Kessel et al., 2013b) (FIG. 2A). We used this reporter plasmid in an E. coli strain that also contains a plasmid expressing LuxR from its native promoter.
A bioassay was developed to monitor LuxR function that consists of a dual-color reporter plasmid (pJV064) that reports both activities: the luxCDABE promoter is activated by LuxR and drives expression of gfp, and the 05222 promoter is repressed by LuxR and drives expression of mCherry (van Kessel, Ulrich et al. 2013). This reporter plasmid was used in an E. coli strain that also contains a plasmid (pKM699) expressing LuxR from its native promoter. E. coli cultures containing these two plasmids were grown at 30° C. in LB medium with chloramphenicol (10 μg/ml) and tetracycline (10 μg/ml) to select for the two plasmids. Compounds were added to the cultures at a range of concentrations, and the cultures were incubated for 16 hours shaking at 30° C.
The dual-promoter fluorescence reporter assays were performed using E. coli strain DH10B containing two plasmids: 1) plasmid pJV064 containing the PluxC fused to GFP and P05222fused to mCherry to assess LuxR transcriptional regulation, and 2) plasmid pKM699 expressing V. campbellii luxR under control of its native promoter or empty vector pLAFR2.

V. campbellii = experiment: Growth of V. campbellii with inhibitor; assay type: cell-based; settings: high concentrations
Source text: (§1) Many sulfonamide-containing compounds are known to target the folate synthesis pathway in bacteria and inhibit growth (bacteriostatic), and thus these “sulfa drugs” have been used as broad-spectrum antibiotics for decades (Hammoudeh et al., 2013, Roland et al., 1979). […] We also tested the stability of the inhibitors in bacterial cultures and the timing of the inhibitory effect.

V. vulnificus = experiment: Growth of V. vulnificus with inhibitor; assay type: cell-based; settings: high concentrations
Source text: as §1

V. campbellii LuxR [2] = target: T1, V. campbellii LuxR; experiment: qRT-PCR and western blots in wild-type V. campbellii; assay type: cell-based
Source text: The Qstatin-treated regulon overlapped with the SmcR regulon by more than 50%, with similar gene expression fold-changes. […] This is important to note because LuxR and HapR proteins are known to autorepress their own expression. To test the effects of adding inhibitors to V. campbellii LuxR, we added 10A, 10B, and 10C to wild-type V. campbellii and used qRT-PCR and western blots to examine the effects on luxR transcript and protein levels. We also examined the transcript levels for luxC and 05222 genes that are directly activated or repressed by LuxR, respectively.
All PCR reactions were performed using Phusion HF polymerase (NEB). T4 polynucleotide kinase (T4 PNK) used in EMSAs and all other enzymes were purchased from NEB and used according to manufacturer's instructions. Site-directed mutagenesis for construction of plasmids expressing mutant proteins was carried out using the Agilent QuikChange II XL Site-Directed Mutagenesis Kit. All oligonucleotides were purchased from Integrated DNA Technologies (IDT).ALL plasmid constructs were confirmed by DNA sequencing (Eurofins). Cloning details for plasmids are available upon request. Western blot analysis was performed as previously described (van Kessel et al., 2013b), except that new anti-LuxR antibodies were generated through Cocalico against purified LuxR protein. In addition, the western blots were probed with anti-RpoB (Neoclone).
Then cells were induced with 50 μM IPTG and grown under the same conditions until cells reached an OD600 of approximately 1, at which 5 mL of cells were collected by centrifugation and frozen in liquid N2. RNA was extracted using a Trizol/chloroform extraction protocol previously described (Rutherford et al., 2011). Quantitative real-time PCR (qRT-PCR) was performed as previously described (Chaparian et al., 2016). Samples were normalized to the internal standard hfq gene. The ΔΔCT values were used to analyze data from three independent biological replicates. Symbols on graphs represent the mean values and error bars represent the standard deviations. All statistical analysis was performed with functions from GraphPad Prism version 8.

[3] = system: PluxC-gfp reporter in V. campbellii; experiment: PluxC-gfp reporter in V. campbellii strains; settings: Vibrio campbellii
[4] = system: PluxC-gfp reporter in V. vulnificus; experiment: PluxC-gfp reporter in V. vulnificus strains; settings: Vibrio vulnificus
Vibrio strains = experiment: luxCDABE reporter across five Vibrio species; settings: each Vibrio strain except V. cholerae
[5] = system: PluxC-gfp reporter in V. coralliilyticus; experiment: PluxC-gfp reporter in V. coralliilyticus strains
[6] = system: PluxC-gfp reporter in V. parahaemolyticus; experiment: PluxC-gfp reporter in V. parahaemolyticus strains; settings: Vibrio parahaemolyticus
SmcR [7] = target: T2, SmcR (Vibrio vulnificus, UniProt Q9L8G8); experiment: ITC analysis of SmcR interaction with inhibitors; assay type: binding, V. vulnificus
T2 sequence (Q9L8G8 entry or part of it): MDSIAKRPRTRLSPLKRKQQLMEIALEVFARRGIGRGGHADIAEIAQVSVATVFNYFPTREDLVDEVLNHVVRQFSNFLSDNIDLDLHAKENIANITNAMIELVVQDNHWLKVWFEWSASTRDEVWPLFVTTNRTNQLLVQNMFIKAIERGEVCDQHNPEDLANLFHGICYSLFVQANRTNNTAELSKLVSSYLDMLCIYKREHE
Source text: To test the validity of the modelling predictions for PTSP, we performed isothermal titration calorimetry (ITC) to determine the binding affinity of SmcR and LuxR for PTSP. […] We noted that PTSP binding to both LuxR and SmcR had lower entropy and enthalpy compared to SmcR binding to Qstatin. […] Thus, we conclude that the efficacy of PTSP inhibition in vivo in these two Vibrio species correlates to the binding affinity determined in vitro for these two proteins.
SmcR and LuxR were purified as described previously. EMSAs were conducted as described previously using oligonucleotides corresponding to the luxC and vvpE promoter sequences. ITC analysis was conducted using purified LuxR or His-tagged SmcR, each in gel-filtration buffer (25 mM Tris pH 7.5, 300 mM NaCl, 0.5 mM EDTA, 1 mM DTT, 2% DMSO). All molecules analyzed were diluted in the same buffer. The samples were degassed for 10 min by vacuum aspiration. Titrations were performed on a Nano-ITC (TA Instruments). […] Thermograms were analyzed using NanoAnalyze software with the independent binding model.

SmcR [8] = target: T2, SmcR; settings: Kim et al., 2018; cited from earlier work
SmcR regulon = settings: cited from earlier work
[9] = system: V. campbellii, V. parahaemolyticus, and V. vulnificus; settings: cited from earlier work
[10] = read-out: IC50 in the bioassay (approximate)
[11] = ATCC25920, read-out: Inhibition (IC50) of the PluxC-gfp reporter, Vcamp ATCC 25920
[12] = read-out: Inhibition (IC50) of the PluxC-gfp reporter, Vcamp BB120
[13] = read-out: Inhibition (IC50) of the PluxC-gfp reporter, Vcamp HY01
[14] = ATCC27562, read-out: Inhibition (IC50) of the PluxC-gfp reporter, Vvul ATCC 27562
[15] = read-out: Inhibition (IC50) of the PluxC-gfp reporter, Vvul CMPC6
[16] = read-out: Inhibition (IC50) of the PluxC-gfp reporter, Vvul YJ016
[17] = read-out: Inhibition (IC50) of the PluxC-gfp reporter, Vcoral OCN 008
[18] = read-out: Inhibition (IC50) of the PluxC-gfp reporter, Vcoral OCN 014
[19] = read-out: Inhibition (IC50) of the PluxC-gfp reporter, Vpara 12-297/B
[20] = read-out: Inhibition (IC50) of the PluxC-gfp reporter, Vpara D4
[21] = read-out: Inhibition (IC50) of the PluxC-gfp reporter, Vpara RIMD 2210633

Row | SMILES | Inhibition of LuxR in the E. coli bioassay (in words) (V. campbellii LuxR [1]) | IC50 (V. campbellii LuxR [1]; [10]) | IC50 [3, 11] [nM] | IC50 [3, 12] [nM] | IC50 [3, 13] [nM] | IC50 [4, 14] [nM] | IC50 [4, 15] [nM] | IC50 [4, 16] [nM] | IC50 [5, 17] [nM] | IC50 [5, 18] [nM] | IC50 [6, 19] [nM] | IC50 [6, 20] [nM] | IC50 [6, 21] [nM] | further results
1 | O=S(=O)(c1ccc(Cl)s1)n1ccc(-c2ccccc2)n1 [Compound 10C, 1-((5-chlorothiophen-2-yl)sulfonyl)-3-phenyl-1H-pyrazole] | most potent | 1000 to 2000 nM | 90 | 710 | 160 | 0.75 | 60.5 | 5.46 | 1070 | 2420 | 1040 | 1280 | 680 | Growth rate or growth yield (V. campbellii): did not alter growth rate or growth yield; Growth rate or growth yield (V. vulnificus): did not alter growth rate or growth yield; luxC transcripts (V. campbellii LuxR [2]; qRT-PCR, to levels in a ΔluxR strain): significantly decreased; 05222 transcripts (V. campbellii LuxR [2]; qRT-PCR, wild-type cultures): significantly increased; LuxR protein level (V. campbellii LuxR [2]; western blot, wild-type V. campbellii): visible increase; IC50 values lower than Qstatin (Vibrio strains): ~10 fold
2 | O=S(=O)(c1ccc(Br)s1)n1cccn1 [Qstatin, 1-((5-bromothiophen-2-yl)sulfonyl)-1H-pyrazole, reference compound] | inhibited LuxR activity | 5000 to 10000 nM and 10000 to 20000 nM | 800 | 4000 | 1200 | 500 | 2100 | 900 | 11600 | 22200 | 1700 | 3000 | 2300 | IC50 (V. campbellii LuxR [1]; Table 2, titration, 16 hours, read-out: Inhibition (IC50) of GFP production by LuxR in E. coli bioassay): 5000 nM; Ka (SmcR [7]): 1.36e+06 M⁻¹; ΔG (SmcR [7]): -8.37 kcal/mol and -8.365 kcal/mol; ΔH (SmcR [7]): -19.58 kcal/mol; ΔS (SmcR [7]): −157.30 J/mol · K; −TΔS (SmcR [7]): 11.21 kcal/mol; Kd (SmcR [7]; 25° C., read-out: Kd): 738 nM; Effect on SmcR DNA binding affinity (SmcR [8]): very little effect; Off-target effects in the ΔsmcR strain (SmcR regulon; RNA-seq, ΔsmcR strain): no significant off-target effects; Overlap of Qstatin-treated regulon with the SmcR regulon (SmcR regulon; RNA-seq): more than 50%; Increase of smcR transcript levels (SmcR regulon; wild-type V. vulnificus): 2.5 fold; Inhibition of pathogenesis in shrimp infection assay [9]: inhibits pathogenesis; IC50 ([3]; read-out: IC50, V. campbellii BB120, luxCDABE): 1300 nM; IC50 ([4]; ATCC27562, read-out: IC50, V. vulnificus ATCC 27562, luxCDABE reporter plasmid): 400 nM; IC50 ([5]; read-out: IC50, V. coralliilyticus OCN008, luxCDABE reporter plasmid): 3600 nM; IC50 ([6]; read-out: IC50, V. parahaemolyticus RIMD2210633, luxCDABE reporter plasmid): 2800 nM

— patent US20230257373A1, “QUORUM SENSING INHIBITORS AND METHODS OF USE” (priority 2020, published 2023)
